System: HUES8-derived population
Assay: Pancreatic lineage markers in ILV-treated population (immunocytochemistry, qRT-PCR)
Type: cell-based, human
Protocol: Total RNAs were extracted with the RNeasy Mini Kit (Qiagen) and reverse-transcribed using SuperScript III RT-PCR system (Invitrogen) according to the manufacturer's protocol. One microliter of cDNA sample was PCR amplified with QuantiFast SYBR Green PCR Kit (Qiagen) and analyzed with DNA engine Opticon2 (MJ Research).
Cells were fixed with 10% formalin solution (Sigma) for 20 min at room temperature. Immunostaining was carried out with standard protocols. The following primary antibodies were used: goat anti-Pdx1 (1:500; R&D system); rabbit anti-FOXA2 (1:500; Upstate); rabbit anti-HNF6 (1:200; Santa Cruz Biotech); guinea pig anti-insulin (1:1000; Dako); rabbit anti-c-peptide (1:500; Linco); rabbit anti-amylase (1:200, Sigma); goat anti-HNF1β (1:100, Santa Cruz Biotech); and biotinylated DBA (1:400; Vector Lab). Alexa-488-, Alexa-555, and Alexa-647-conjugated donkey antibodies against mouse, rabbit, guinea pig and goat, and Pacific Blue conjugate-streptavidin (Invitrogen) were used at 1:300 dilution.
To further characterize the cells induced by ILV, beyond Pdx1^+ expression, multiple pancreatic lineage markers were examined by immunocytochemistry and qRT-PCR. More than 96% of the Pdx1^+ cells following ILV treatment show significant expression of other pancreatic progenitor markers, including FOXA2 and HNF6 (FIG. 4a). After ILV treatment, Pdx1, HNF6, Ptfla, Sox9, FOXA2 mRNAs level increase (FIG. 4b).

Substance: (−)-Indolactam V [ILV]
- Pdx1, HNF6, Ptfla, Sox9, FOXA2 mRNAs level (300 nM ILV, 4 days, qRT-PCR): increase
- endocrine progenitor markers Nkx2.2, Ngn3 and Nkx6.1 (300 nM ILV, 4 days, qRT-PCR): upregulated
- share of Pdx1+ cells with significant expression of FOXA2 and HNF6 (after ILV treatment, immunocytochemistry): More than 96%
